In ChEMBL document CHEMBL3739370, “Synthesis and evaluation of amide, sulfonamide and urea benzisoxazole derivatives as potential atypical antipsychotics” (Medchemcomm, 2015):

Legend:
[1] = biological target: D(2) dopamine receptor (Homo sapiens) (UniProt P14416); assay: Antagonist activity at dopamine D2 receptor (unknown origin) at 10 uM
[2] = biological target: 5-hydroxytryptamine receptor 2A (Homo sapiens) (UniProt P28223); assay: Agonist activity at […] receptor (unknown origin) at 10 uM relative to 5-HT
5-hydroxytryptamine receptor 2A (Homo sapiens), sequence (P28223 whole entry): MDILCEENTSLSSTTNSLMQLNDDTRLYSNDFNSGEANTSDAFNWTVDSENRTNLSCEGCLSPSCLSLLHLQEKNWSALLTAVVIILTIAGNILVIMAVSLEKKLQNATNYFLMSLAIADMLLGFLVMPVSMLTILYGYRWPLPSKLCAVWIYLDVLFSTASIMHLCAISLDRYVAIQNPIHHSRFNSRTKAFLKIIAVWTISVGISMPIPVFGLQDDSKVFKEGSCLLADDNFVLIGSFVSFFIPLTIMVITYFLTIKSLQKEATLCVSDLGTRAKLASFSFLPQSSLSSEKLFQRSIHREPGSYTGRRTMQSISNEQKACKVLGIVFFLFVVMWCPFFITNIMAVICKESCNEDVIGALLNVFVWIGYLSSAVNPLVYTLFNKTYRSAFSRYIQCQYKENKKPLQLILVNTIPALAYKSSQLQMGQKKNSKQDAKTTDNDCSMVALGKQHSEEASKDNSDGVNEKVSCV

D(2) dopamine receptor (Homo sapiens), sequence (P14416 whole entry): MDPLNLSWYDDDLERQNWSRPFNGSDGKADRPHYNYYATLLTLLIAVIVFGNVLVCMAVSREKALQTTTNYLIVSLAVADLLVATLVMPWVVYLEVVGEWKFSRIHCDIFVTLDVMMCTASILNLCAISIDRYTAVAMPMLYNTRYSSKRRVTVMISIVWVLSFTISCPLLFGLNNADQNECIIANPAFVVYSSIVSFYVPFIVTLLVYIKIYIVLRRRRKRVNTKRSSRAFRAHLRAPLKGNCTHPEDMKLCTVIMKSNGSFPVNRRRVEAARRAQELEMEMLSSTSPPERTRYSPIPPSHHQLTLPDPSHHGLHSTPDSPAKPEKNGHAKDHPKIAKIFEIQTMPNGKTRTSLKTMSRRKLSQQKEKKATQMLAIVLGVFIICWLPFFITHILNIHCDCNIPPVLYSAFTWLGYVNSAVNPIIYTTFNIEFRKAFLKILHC

## O=[N+]([O-])c1ccc(S(=O)(=O)N2CCC(CN3CCC(c4noc5cc(F)ccc45)CC3)CC2)cc1
[1]
  inhibition: 100%
[2]
  Activity: 6.8%
